In one test the target is T1, hERG channel (Homo sapiens, UniProt Q12809).
T1 construct: expressed in transfected cells
In words: hERG electrophysiology, automated whole-cell patch clamp (Patchliner) in CHO-K1 cells stably expressing hERG. The test is classed as cell-based. Conditions: 30 nM-100 μM. The protocol: This assay is used to evaluate the disclosed compounds' inhibition activities against the hERG channel.
CHO-K1 cells stably expressing hERG were grown in Ham's F-12 Medium with glutamine containing 10% heat-inactivated FBS, 1% penicillin/streptomycin, hygromycin (100 μg/ml) and G418 (100 μg/ml). Cells were grown in culture flasks at 37° C. in a 5% CO2-humidified incubator.
The cells were bathed in an extracellular solution containing 140 mM NaCl, 4 mM KCl, 2 mM CaCl2), 1 mM MgCl2, 5 mM Glucose, 10 mM HEPES; pH adjusted to 7.4 with NaOH; 295-305 mOsm. The internal solution contained 50 mM KCl, 10 mM NaCl, 60 mM KF, 20 mM EGTA, 10 mM HEPES; pH adjusted to 7.2 with KOH; 285 mOsm. All compounds were dissolved in DMSO at 30 mM. Compound stock solutions were freshly diluted with external solution to concentrations of 30 nM, 100 nM, 300 nM, 1 μM, 3 μM, 10 μM, 30 μM and 100 μM. The highest content of DMSO (0.3%) was present in 100 μM.
The voltage protocol (see Table B) was designed to simulate voltage changes during a cardiac action potential with a 300 ms depolarization to +20 mV (analogous to the plateau phase of the cardiac action potential), a repolarization for 300 ms to −50 mV (inducing a tail current) and a final step to the holding potential of −80 mV. The pulse frequency was 0.3 Hz. Control (compound-free) and compound pulse trains for each compound concentration applied contained 70 pulses.
Whole-cell current recordings and compound application were enabled by means of an automated patch clamp platform Patchliner (Nanion). EPC 10 patch clamp amplifier (HEKA) along with Patchmaster software (HEKA Elektronik Dr. Schulze GmbH) was used for data acquisition. Data were sampled at 10 kHz without filtering. Increasing compound concentrations were applied consecutively to the same cell without washouts in between.
AUC and PEAK values were obtained with Patchmaster (HEKA Elektronik Dr. Schulze GmbH). To determine IC50 the last single pulse in the pulse train corresponding to a given compound concentration was used. Obtained AUC and PEAK values in the presence of compound were normalized to control values in the absence of compound. Using Origin (OridinLab), IC50 was derived from data fit to Hill equation: Icompound/Icontrol=(100−A)/(1+([compound]/IC50)nH)+A, where IC50 is the concentration at which current inhibition is half-maximal, [compound] is the applied compound concentration, A is the fraction of current that is not blocked and nH is the Hill coefficient.

In another test the target is T2, Kv1.3 potassium channel (Homo sapiens, UniProt P22001).
T2 construct: expressed in transfected cells
T2 sequence (P22001 whole entry): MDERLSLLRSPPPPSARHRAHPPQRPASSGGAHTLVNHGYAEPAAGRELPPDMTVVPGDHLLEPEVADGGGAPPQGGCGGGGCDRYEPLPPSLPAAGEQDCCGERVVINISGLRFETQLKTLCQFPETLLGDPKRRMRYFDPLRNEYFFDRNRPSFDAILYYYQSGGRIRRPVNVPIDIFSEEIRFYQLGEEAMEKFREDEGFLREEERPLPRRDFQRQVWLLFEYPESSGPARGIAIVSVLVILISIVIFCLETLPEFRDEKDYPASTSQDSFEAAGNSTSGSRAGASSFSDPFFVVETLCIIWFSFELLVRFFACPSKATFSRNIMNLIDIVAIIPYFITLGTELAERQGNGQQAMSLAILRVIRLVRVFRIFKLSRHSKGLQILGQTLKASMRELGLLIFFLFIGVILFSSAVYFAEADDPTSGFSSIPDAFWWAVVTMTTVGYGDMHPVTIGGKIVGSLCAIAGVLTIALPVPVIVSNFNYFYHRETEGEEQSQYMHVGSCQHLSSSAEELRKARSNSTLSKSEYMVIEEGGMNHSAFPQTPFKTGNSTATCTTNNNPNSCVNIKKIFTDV
The test is described as follows: Kv1.3 potassium channel blocker activity, automated whole-cell patch clamp (Patchliner) in CHO-K1 cells stably expressing Kv1.3. The test is classed as cell-based. Conditions: 30 nM-100 μM. The method, boiled down: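 Whole-cell automated patch clamp in CHO-K1 cells, pH 7.4 external/7.2 internal; 100 ms steps from −90 to +40 mV at 0.1 Hz, 20-pulse trains. Cumulative 30 nM–100 μM on one cell, ≤10 s per concentration; last-pulse current normalized to control, IC50 from Hill fit.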

The text below walks through data of patent US20240391926A1, “SPIROINDOLINONE COMPOUNDS AS Kv1.3 POTASSIUM SHAKER CHANNEL BLOCKERS” (D.E. Shaw Research, LLC, priority 2021, published 2024).

Bounds are passed on as bounds.

T1 sequence (Q12809 whole entry): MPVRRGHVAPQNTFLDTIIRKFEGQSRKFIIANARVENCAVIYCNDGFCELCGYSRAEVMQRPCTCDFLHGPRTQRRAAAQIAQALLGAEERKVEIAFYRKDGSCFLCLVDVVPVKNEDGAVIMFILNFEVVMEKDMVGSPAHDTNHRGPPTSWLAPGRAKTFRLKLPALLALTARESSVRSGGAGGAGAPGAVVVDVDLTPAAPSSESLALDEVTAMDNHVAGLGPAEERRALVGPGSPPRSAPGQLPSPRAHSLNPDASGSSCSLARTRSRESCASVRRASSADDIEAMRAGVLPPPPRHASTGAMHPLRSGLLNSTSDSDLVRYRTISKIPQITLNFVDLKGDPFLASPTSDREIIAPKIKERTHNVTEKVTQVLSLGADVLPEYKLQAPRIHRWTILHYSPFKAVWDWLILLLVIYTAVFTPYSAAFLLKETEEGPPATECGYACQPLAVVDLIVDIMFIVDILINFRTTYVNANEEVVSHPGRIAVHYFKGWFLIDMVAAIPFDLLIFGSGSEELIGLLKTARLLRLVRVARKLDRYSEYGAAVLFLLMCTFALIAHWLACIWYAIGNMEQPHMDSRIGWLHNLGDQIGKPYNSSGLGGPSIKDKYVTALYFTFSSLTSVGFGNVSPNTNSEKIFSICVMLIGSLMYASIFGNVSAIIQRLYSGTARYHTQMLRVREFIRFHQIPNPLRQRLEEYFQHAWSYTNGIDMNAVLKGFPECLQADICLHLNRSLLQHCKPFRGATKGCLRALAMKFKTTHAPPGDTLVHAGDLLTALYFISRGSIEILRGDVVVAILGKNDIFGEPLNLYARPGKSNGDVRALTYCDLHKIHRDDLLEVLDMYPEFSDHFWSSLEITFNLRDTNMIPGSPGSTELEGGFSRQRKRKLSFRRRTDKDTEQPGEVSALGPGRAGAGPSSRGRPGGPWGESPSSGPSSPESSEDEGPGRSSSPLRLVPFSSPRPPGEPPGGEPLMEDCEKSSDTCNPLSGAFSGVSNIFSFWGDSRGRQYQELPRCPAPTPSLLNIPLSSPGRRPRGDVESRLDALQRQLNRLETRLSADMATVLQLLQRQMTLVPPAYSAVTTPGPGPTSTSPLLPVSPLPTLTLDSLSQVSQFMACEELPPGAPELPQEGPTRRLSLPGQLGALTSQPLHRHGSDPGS

By IC50 is commonly meant the midpoint of a concentration-inhibition curve. A low value points to greater potency. For the molecule `C[C@@H](O)C(=O)N1CC[C@]2(C1)C(=O)Nc1cc(Cl)c(Cl)cc12` [Compound 13, (S)-5,6-dichloro-1′-((R)-2-hydroxypropanoyl)spiro[indoline-3,3′-pyrrolidin]-2-one], the IC50 against hERG channel is over 100 µM; against Kv1.3 potassium channel, under 1 µM.

For the molecule `Cc1c(Cl)c(Cl)cc2c1NC(=O)[C@@]21CCN(C(=O)CO)C1` [Compound 129, (3S)-5,6-dichloro-1′-(2-hydroxyacetyl)-7-methyl-1H-spiro[indole-3,3′-pyrrolidin]-2-one], the IC50 against hERG channel was over 100 µM; at Kv1.3 potassium channel, under 0.3 µM.

For `Nc1cc(C(=O)N2CC[C@]3(C2)C(=O)Nc2cc(Cl)c(Cl)cc23)ccn1` [Compound 42, (S)-1′-(2-aminoisonicotinoyl)-5,6-dichlorospiro[indoline-3,3′-pyrrolidin]-2-one], the IC50 on hERG channel was over 10 µM; against Kv1.3 potassium channel, under 0.3 µM.

Take `O=C([C@H]1CCNC1)N1CC[C@]2(C1)C(=O)Nc1cc(Cl)c(Cl)cc12` [Compound 15, (S)-5,6-dichloro-1′-((S)-pyrrolidine-3-carbonyl)spiro[indoline-3,3′-pyrrolidin]-2-one]: the values for the IC50 against hERG channel and at Kv1.3 potassium channel were over 100 µM and under 1 µM, respectively.

Turning to `O=C(c1cc[nH]n1)N1CC[C@]2(C1)C(=O)Nc1cc(Cl)c(Cl)cc12` [Compound 53, (S)-5,6-dichloro-1′-(1H-pyrazole-3-carbonyl)spiro[indoline-3,3′-pyrrolidin]-2-one], the IC50 against hERG channel is over 10 µM; at Kv1.3 potassium channel, under 3 µM.

In the case of `O=C([C@@H]1CCNC1)N1CC[C@]2(C1)C(=O)Nc1cc(Cl)c(Cl)cc12` [Compound 14, (S)-5,6-dichloro-1′-((R)-pyrrolidine-3-carbonyl)spiro[indoline-3,3′-pyrrolidin]-2-one], the IC50 against hERG channel is over 100 µM; against Kv1.3 potassium channel it was under 0.3 µM.

Consider `O=C(CO)N1CC[C@]2(C1)C(=O)Nc1c2cc(Cl)c(Cl)c1F` [Compound 128, (S)-5,6-dichloro-7-fluoro-1′-(2-hydroxyacetyl)spiro[indoline-3,3′-pyrrolidin]-2-one], for which the IC50 on hERG channel is over 100 µM; on Kv1.3 potassium channel it was under 0.3 µM.

With `O=C([C@@H]1CCN(CCO)C1)N1CC[C@]2(C1)C(=O)Nc1cc(Cl)c(Cl)cc12` (single isomer, unassigned; isomer 2) [Compound 38], the IC50 at hERG channel is over 100 µM; on Kv1.3 potassium channel, under 0.3 µM.

In the case of `O=C(N1CC[C@]2(C1)C(=O)Nc1cc(Cl)c(Cl)cc12)C1(F)CCNC1` (single isomer, unassigned; isomer 1) [Compound 29], the IC50 against hERG channel was over 3 µM; on Kv1.3 potassium channel, under 0.3 µM.
